Experiments:
barnyardgrass [1] = test: Test A preemergence; format: in vivo, Echinochloa crus-galli; details: for Plant response rating, Barnyardgrass: 0 to 100 scale where 0 is no effect and 100 is complete control
Method in brief: (§1)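 Compounds in non-phytotoxic solvent with surfactant applied as soil spray preemergence, or postemergence to plants 2-10 cm at one- to two-leaf stage, in loam/sand. After approximately 10 days in greenhouse, injury rated visually versus untreated controls, 0 (no effect) to 100 (complete control).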

kochia [2] = test: Test A preemergence; format: in vivo, Kochia scoparia; details: for Plant response rating, Kochia: 0 to 100 scale where 0 is no effect and 100 is complete control
Method in brief: as §1

ragweed [3] = test: Test A preemergence; format: in vivo, Ambrosia elatior; details: for Plant response rating, Ragweed: 0 to 100 scale where 0 is no effect and 100 is complete control
Method in brief: as §1

Italian ryegrass [4] = test: Test A preemergence; format: in vivo, Lolium multiflorum; details: for Plant response rating, Ryegrass, Italian: 0 to 100 scale where 0 is no effect and 100 is complete control
Method in brief: as §1

giant foxtail [5] = test: Test A preemergence; format: in vivo, Setaria faberii; details: for Plant response rating, Foxtail, Giant: 0 to 100 scale where 0 is no effect and 100 is complete control
Method in brief: as §1

pigweed [6] = test: Test A preemergence; format: in vivo, Amaranthus retroflexus; details: for Plant response rating, Pigweed: 0 to 100 scale where 0 is no effect and 100 is complete control
Method in brief: as §1

barnyardgrass [7] = test: Test A postemergence; format: in vivo, Echinochloa crus-galli; details: for Plant response rating, Barnyardgrass: 0 to 100 scale, 0 no effect, 100 complete control
Method in brief: as §1

kochia [8] = test: Test A postemergence; format: in vivo, Kochia scoparia; details: for Plant response rating, Kochia: 0 to 100 scale, 0 no effect, 100 complete control
From the text: (§2) Seeds of plant species selected from barnyardgrass (Echinochloa crus-galli), kochia (Kochia scoparia), ragweed (common ragweed, Ambrosia elatior), Italian ryegrass (Lolium multiflorum), large (Lg) crabgrass (Digitaria sanguinalis), giant foxtail (Setaria faberii), morningglory (Ipomoea spp.), pigweed (Amaranthus retroflexus), velvetleaf (Abutilon theophrasti), wheat (Triticum aestivum), and corn (Zea mays) were planted into a blend of loam soil and sand and treated preemergence with a directed soil spray using test chemicals formulated in a non-phytotoxic solvent mixture which included a surfactant.
(§3) At the same time, plants selected from these crop and weed species and also blackgrass (Alopecurus myosuroides), and galium (catchweed bedstraw, Galium aparine) were planted in pots containing the same blend of loam soil and sand and treated with postemergence applications of test chemicals formulated in the same manner. Plants ranged in height from 2 to 10 cm and were in the one- to two-leaf stage for the postemergence treatment. Treated plants and untreated controls were maintained in a greenhouse for approximately 10 days, after which time all treated plants were compared to untreated controls and visually evaluated for injury. Plant response ratings, summarized in Table A, are based on a 0 to 100 scale where 0 is no effect and 100 is complete control. A dash (-) response means no test result.

ragweed [9] = test: Test A postemergence; format: in vivo, Ambrosia elatior; details: for Plant response rating, Ragweed: 0 to 100 scale, 0 no effect, 100 complete control
Method in brief: as §1

Italian ryegrass [10] = test: Test A postemergence; format: in vivo, Lolium multiflorum; details: for Plant response rating, Ryegrass, Italian: 0 to 100 scale, 0 no effect, 100 complete control
From the text: as §2, §3

giant foxtail [11] = test: Test A postemergence; format: in vivo, Setaria faberii; details: for Plant response rating, Foxtail, Giant: 0 to 100 scale, 0 no effect, 100 complete control
Method in brief: as §1

pigweed [12] = test: Test A postemergence; format: in vivo, Amaranthus retroflexus; details: for Plant response rating, Pigweed: 0 to 100 scale, 0 no effect, 100 complete control
Method in brief: as §1

wheat = test: Test A postemergence; format: in vivo, Triticum aestivum; details: for Plant response rating, Wheat: 0 to 100 scale, 0 no effect, 100 complete control
Method in brief: as §1

corn = test: Test A postemergence; format: in vivo, Zea mays; details: for Plant response rating, Corn: 0 to 100 scale, 0 no effect, 100 complete control
Method in brief: as §1

blackgrass = test: Test A postemergence; format: in vivo, Alopecurus myosuroides; details: for Plant response rating, Blackgrass: 0 to 100 scale, 0 no effect, 100 complete control
From the text: as §2, §3

galium = test: Test A postemergence; format: in vivo, Galium aparine; details: for Plant response rating, Galium: 0 to 100 scale, 0 no effect, 100 complete control
Method in brief: as §1

rice = test: Test B flooded paddy test; format: in vivo, Oryza sativa; details: Flood, 250 g ai/ha; 0 to 100 scale where 0 is no effect and 100 is complete control
Method in brief: (§4)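 Compound added straight to paddy water, with pots kept flooded 3 cm above soil, on plants grown to the 2-leaf stage. Visual scoring 0-100 (100 = complete control) against untreated controls after 13 to 15 greenhouse days.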

sedge, umbrella = test: Test B flooded paddy test; format: in vivo, Cyperus difformis; details: Flood, 250 g ai/ha; 0 to 100 scale where 0 is no effect and 100 is complete control
Method in brief: as §4

Heteranthera limosa = test: Test B flooded paddy test; format: in vivo; details: Flood, 250 g ai/ha; 0 to 100 scale where 0 is no effect and 100 is complete control
Method in brief: as §4

barnyardgrass [13] = test: Test B flooded paddy test; format: in vivo, Echinochloa crus-galli; details: Flood, 250 g ai/ha; 0 to 100 scale where 0 is no effect and 100 is complete control
Method in brief: as §4

[14] = 31 g ai/ha, visual, approximately 10 days
[15] = 125 g ai/ha, 0 to 100 scale where 0 is no effect and 100 is complete control

Structure (SMILES) | Plant response rating, Barnyardgrass (barnyardgrass [1]; [14]) | Plant response rating, Kochia (kochia [2]; [14]) | Plant response rating, Ryegrass, Italian (Italian ryegrass [4]; [14]) | Plant response rating, Foxtail, Giant (giant foxtail [5]; [14]) | Plant response rating, Pigweed (pigweed [6]; [14]) | Plant response rating, Barnyardgrass (barnyardgrass [7]; 31 g ai/ha) | Plant response rating, Kochia (kochia [8]; 31 g ai/ha) | Plant response rating, Ragweed (ragweed [9]; 31 g ai/ha) | Plant response rating, Ryegrass, Italian (Italian ryegrass [10]; 31 g ai/ha) | Plant response rating, Foxtail, Giant (giant foxtail [11]; 31 g ai/ha) | Plant response rating, Pigweed (pigweed [12]; 31 g ai/ha) | Plant response rating, Wheat (wheat; 31 g ai/ha) | Plant response rating, Corn (corn; 31 g ai/ha) | Plant response rating, Blackgrass (blackgrass; 31 g ai/ha) | Plant response rating, Galium (galium; 31 g ai/ha) | Plant response rating, Rice (rice) | Plant response rating, Sedge, Umbrella (sedge, umbrella) | Plant response rating, Ducksalad (Heteranthera limosa) | Plant response rating, Barnyardgrass (barnyardgrass [13]) | other results
Fc1cccc(Oc2ncc(Cl)cn2)c1-n1cc(OC(F)F)cn1 [Compound 271] | 20 | 70 | 0 | 40 | 90 | 10 | 70 | 0 | 0 | 10 | 70 | 0 | 20 | 10 | 70 | 0 | 60 | 90 | 0 | Barnyardgrass plant response rating (0 to 100 scale, 0 is no effect, 100 is complete control) (barnyardgrass [1]; 125 g ai/ha): 100; Kochia plant response rating (0 to 100 scale) (kochia [2]; 125 g ai/ha): 100; Plant response rating, Ragweed (ragweed [3]; [14]): 0; Ragweed plant response rating (0 to 100 scale) (ragweed [3]; 125 g ai/ha): 20; Ryegrass, Italian plant response rating (0 to 100 scale) (Italian ryegrass [4]; 125 g ai/ha): 10; Foxtail, Giant plant response rating (0 to 100 scale) (giant foxtail [5]; 125 g ai/ha): 100; Pigweed plant response rating (0 to 100 scale) (pigweed [6]; 125 g ai/ha): 100; Plant response rating, Barnyardgrass (barnyardgrass [7]; 125 g ai/ha): 80; Plant response rating, Kochia (kochia [8]; 125 g ai/ha): 100; Plant response rating, Ragweed (ragweed [9]; 125 g ai/ha): 80; Plant response rating, Ryegrass, Italian (Italian ryegrass [10]; 125 g ai/ha): 30; Plant response rating, Foxtail, Giant (giant foxtail [11]; 125 g ai/ha): 90; Plant response rating, Pigweed (pigweed [12]; 125 g ai/ha): 100; Plant response rating, Wheat (wheat; 125 g ai/ha): 40; Plant response rating, Corn (corn; 125 g ai/ha): 30; Plant response rating, Blackgrass (blackgrass; 125 g ai/ha): 80; Plant response rating, Galium (galium; 125 g ai/ha): 100
Fc1cnc(Oc2cccc(Br)c2-n2cc(OCC(F)(F)F)cn2)nc1 [Compound 157] | 20 | 60 | 0 | 70 | 90 | 10 | 60 | 20 | 0 | 10 | 90 | 0 | 0 | 30 | 60 | 35 | 75 | 80 | 35 | Plant response rating, Barnyardgrass (barnyardgrass [1]; 125 g ai/ha): 80; Plant response rating, Kochia (kochia [2]; 125 g ai/ha): 90; Plant response rating, Ragweed (ragweed [3]; 125 g ai/ha): 30; Plant response rating, Ryegrass, Italian (Italian ryegrass [4]; 125 g ai/ha): 0; Plant response rating, Foxtail, Giant (giant foxtail [5]; 125 g ai/ha): 100; Plant response rating, Pigweed (pigweed [6]; 125 g ai/ha): 90; Barnyardgrass plant response rating (barnyardgrass [7]; [15]): 80; Kochia plant response rating (kochia [8]; [15]): 100; Ragweed plant response rating (ragweed [9]; [15]): 50; Ryegrass, Italian plant response rating (Italian ryegrass [10]; [15]): 20; Foxtail, Giant plant response rating (giant foxtail [11]; [15]): 80; Pigweed plant response rating (pigweed [12]; [15]): 100; Wheat plant response rating (wheat; [15]): 0; Corn plant response rating (corn; [15]): 40; Blackgrass plant response rating (blackgrass; [15]): 50; Galium plant response rating (galium; [15]): 90

Source: patent US9695155B2, “Herbicidal substituted pyrimidinyloxy benzene compounds” (E. I. DU PONT DE NEMOURS AND COMPANY, priority 2013, dated 2017)
